Test results reported in patent US20140011867A1, “EFFECT OF BORRELIDIN FOR CONTROLLING SOYBEAN PHYTOPHTHORA ROOT ROT” (ZHEJIANG HISUN PHARMACEUTICAL CO., LTD., priority 2011, published 2014).
In brackets after ≈: the same amount, converted by molar mass. Like-named read-outs stand apart in the source and are kept apart here.

Test system: Phytophthora sajae Kaufmann & Gerdeman
Test: Mycelial growth inhibition assay (growth rate method)
Assay type: cell-based
Set-up: IC50 as fraction of that of metalaxyl: unit not given beside the values
Procedure: Growth rate method was used in the assays. […] Phytophthora sajae Kaufmann & Gerdeman cultures after 7 days of culture were punched using a sterile punch (Ø0.5cm) and put on standby, and the cultures were later transferred onto […] (CA) plate culture media and placed at a temperature of 27±1° C., and colony diameters were measured after 7 days of culture.

[1] = mycelial growth, CA plate, 27±1° C., colony diameter after 7 days
[2] = mycelial growth inhibition assay

Compound | IC50 (Phytophthora, 168 h, mycelial growth, CA plate, 27±1° C., colony diameter after 7 days, read-out: IC50) | IC95 [1] | IC50 as fraction of that of metalaxyl [2] | IC95 as fraction of that of metalaxyl [2] | IC50 (mycelial growth inhibition assay, unit inferred) | IC95 (mycelial growth inhibition assay, unit not given)
COCC(=O)N(c1c(C)cccc1C)C(C)C(=O)OC (stereo not shown) [Metalaxyl, reference compound] | 0.35 µg/mL (≈ 1.25 µM) | 6.85 µg/mL (≈ 24.5 µM) | – | – | – | –
Borrelidin | – | 0.026 µg/mL | 1/62 | 1/263 | 0.0056 µg/mL | 0.026
